According to US9193729B2, “Inhibiting transient receptor potential ion channel TRPA1” (Cubist Pharmaceuticals, Inc., priority 2011, dated 2015):

Columns and labels:
female rats = test: 7-day i.p. repeat dose screening toxicity study; type: in vivo, rat; conditions: rats, 50 mg/kg/day i.p. for 7 consecutive days
Description: The compound of Formula (Ia) was evaluated in a 7-day repeat dose screening toxicity study in female rats. In order to maximize systemic exposure, rats were administered compound of Formula (Ia) i.p. at 50 mg/kg/day for 7 consecutive days, to obtain the results shown in FIG. 6. Clinical chemistry parameters were evaluated on Days 3 and 8. Histopathology was performed on select organs including the liver, kidney, spleen, and lung.

[1] = system: serum biomarkers of hepatotoxicity; test: Hepatotoxicity serum biomarker study in dogs, oral dose; type: in vivo, dog; conditions: for ALT level elevation: single PO dose of 50 mg/kg
Description: The compound of Formula (Ia) was orally dosed to […] at dose levels of 5, 15 or 50 mg/kg using 30% Sulfobutylether β-cyclodextrin as the vehicle for assessment of safety as measured via serum chemistry biomarkers of hepatotoxicity or bile duct injury FIG. 5A, showing measurements of alanine aminotranferease [ALT], aspartate aminotranferease [AST], alkaline phosphatase [ALP] and gamma-glutamyl transferase [GGT] in the dogs at each dose level (each bar represents a measurement from 1 dog in the study). […] For example, the ALT levels were elevated up to about 60-fold in male dogs and up to about 130-fold in female beagle dogs following a single PO dose of 50 mg/kg.

[2] = system: formalin-induced pain behavior; test: Formalin-induced pain behavior in vivo rodent model; set-up: species or system rat; conditions: i.p. administration, in words
Text: The data shown in Tables 3a, 3b, and 3c and FIG. 2 were obtained by administering a pharmaceutical composition comprising the compound of Formula (Ia) to rodents in the formalin-induced pain duration at various doses according to Example 5. Specifically, the data in Tables 3a, 3b, and 3c and FIG. 2 were obtained by intraperitoneal (i.p.) administration of compositions containing different concentrations of the compound of Formula (Ia), a comparator composition containing recited amounts of the comparator compound (e.g., 150 mg/kg of the comparator compound of Formula (II) in Table 3a) and a control composition containing the vehicle (e.g., without the compound of Formula (Ia) or a comparator compound).
The compound of Formula (Ia) and the comparator compounds of Formula (II) and Formula (III) were tested in the formalin-induced pain test reported by Dubuisson et al., Pain 1977 December; 4(2):161-74 (incorporated herein by reference in its entirety). Dubuisson et al. (1977) describe a method for assessing pain and analgesia in rats and cats. Briefly, dilute formalin (50 μL of 3% formalin) is injected into the plantar surface of the hind paw. […] The individual responsible for counting the pain behaviors in a particular study is blinded to the treatment groups.
Rats were treated with the HCl salt of Compound (Ia) at various doses (3, 10, 30, and 50 mg/kg, IP) or with the vehicle (IP).

hTRPV3 = molecular target: T1, hTRPV3 (Homo sapiens, UniProt Q8NET8); test: Patch clamp selectivity, hTRPV3; type: cell-based; conditions: same procedure as Example 3; species not given; read-out: IC50 in Patch Clamp Assay, TrpV3
T1 sequence (Q8NET8 1-790): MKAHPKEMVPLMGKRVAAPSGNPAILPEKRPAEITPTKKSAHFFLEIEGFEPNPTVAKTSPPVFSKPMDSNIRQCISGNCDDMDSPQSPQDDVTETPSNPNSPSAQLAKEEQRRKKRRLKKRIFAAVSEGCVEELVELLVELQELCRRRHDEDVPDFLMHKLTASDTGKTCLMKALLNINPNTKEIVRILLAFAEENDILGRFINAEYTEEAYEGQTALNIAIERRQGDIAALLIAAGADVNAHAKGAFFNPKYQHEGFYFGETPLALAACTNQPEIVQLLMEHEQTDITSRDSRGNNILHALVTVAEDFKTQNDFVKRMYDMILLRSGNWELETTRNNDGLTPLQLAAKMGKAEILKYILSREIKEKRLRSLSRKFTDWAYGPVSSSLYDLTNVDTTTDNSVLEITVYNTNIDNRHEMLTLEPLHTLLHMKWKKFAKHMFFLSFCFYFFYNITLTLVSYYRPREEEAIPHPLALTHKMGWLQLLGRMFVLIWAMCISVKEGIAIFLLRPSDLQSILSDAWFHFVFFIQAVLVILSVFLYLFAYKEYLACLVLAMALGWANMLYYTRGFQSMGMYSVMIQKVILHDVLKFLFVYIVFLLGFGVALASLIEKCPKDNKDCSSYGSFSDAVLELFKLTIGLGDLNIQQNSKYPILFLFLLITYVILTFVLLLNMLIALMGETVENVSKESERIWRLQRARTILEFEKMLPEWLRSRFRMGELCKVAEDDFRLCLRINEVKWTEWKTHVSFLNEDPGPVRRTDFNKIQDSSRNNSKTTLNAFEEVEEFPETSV
Description: (§1) Data for TRPA1 inhibition and the selectivity of TRPA1 inhibition was obtained by this method for the compound of Formula (Ia) and included in Table 1 and Table 2. All currents were recorded in whole-cell configuration using EPC-9 and EPC-10 amplifiers and Patchmaster software (HEKA). […] The standard pipette solution consisted of 140 mM CsAsp, 10 mM EGTA, 10 mM HEPES, 2.27 mM MgCl2, 1.91 mM CaCl2, 4 mM MgATP, and 0.1-0.3 mM Na2GTP, with pH adjusted to 7.2 with CsOH. In addition, a solution containing 145 mM CsCl, 10 mM HEPES, 10 mM EGTA and 1 mM MgCl2 (pH 7.2 adjusted with CsOH) can be used. The standard bath solution contained 150 mM NaCl, 10 mM HEPES, 10 mM glucose, 4.5 mM KCl, 1 mM EGTA, 3 mM MgCl2, with pH adjusted to 7.4 with NaOH. In some instances, 2 mM CaCl2 was added in place of EGTA and the concentration of MgCl2 was reduced to 1 mM.
(§2) Data were collected either by continuous recordings at −60 mV or by applying voltage ramps from a holding potential of 0 mV every 4 s. […] Inward and outward currents were analyzed from the ramps at −80 and 80 mV, respectively. […]
(§3) Solutions were switched using a gravity-fed continuous focal perfusion system. […] Temperatures were confirmed using a thermistor (Warner Instruments, TA-29), with temperatures at the recorded cell estimated to be within +/−2° C. of those reported. […]

hERG = hERG (Homo sapiens, UniProt Q12809); test: Patch clamp selectivity, hERG; type: cell-based; conditions: same procedure as Example 3
Description: as §1, §2, §3

hNav1.2 = hNav1.2 (Homo sapiens, UniProt Q99250); test: Patch clamp selectivity, hNav1.2; type: cell-based; conditions: same procedure as Example 3; species not given; read-out: IC50 in Patch Clamp Assay, NaV1.2
Description: as §1, §2, §3

hTRPA1 = hTRPA1 (Homo sapiens, UniProt O75762); test: Whole-cell patch clamp inhibition of hTRPA1; type: cell-based; conditions: same procedure as Example 3; species not given; read-out: IC50 in Patch Clamp Assay, TRPA1
Description: as §1, §2, §3

hTRPA1, sequence (O75762 whole entry): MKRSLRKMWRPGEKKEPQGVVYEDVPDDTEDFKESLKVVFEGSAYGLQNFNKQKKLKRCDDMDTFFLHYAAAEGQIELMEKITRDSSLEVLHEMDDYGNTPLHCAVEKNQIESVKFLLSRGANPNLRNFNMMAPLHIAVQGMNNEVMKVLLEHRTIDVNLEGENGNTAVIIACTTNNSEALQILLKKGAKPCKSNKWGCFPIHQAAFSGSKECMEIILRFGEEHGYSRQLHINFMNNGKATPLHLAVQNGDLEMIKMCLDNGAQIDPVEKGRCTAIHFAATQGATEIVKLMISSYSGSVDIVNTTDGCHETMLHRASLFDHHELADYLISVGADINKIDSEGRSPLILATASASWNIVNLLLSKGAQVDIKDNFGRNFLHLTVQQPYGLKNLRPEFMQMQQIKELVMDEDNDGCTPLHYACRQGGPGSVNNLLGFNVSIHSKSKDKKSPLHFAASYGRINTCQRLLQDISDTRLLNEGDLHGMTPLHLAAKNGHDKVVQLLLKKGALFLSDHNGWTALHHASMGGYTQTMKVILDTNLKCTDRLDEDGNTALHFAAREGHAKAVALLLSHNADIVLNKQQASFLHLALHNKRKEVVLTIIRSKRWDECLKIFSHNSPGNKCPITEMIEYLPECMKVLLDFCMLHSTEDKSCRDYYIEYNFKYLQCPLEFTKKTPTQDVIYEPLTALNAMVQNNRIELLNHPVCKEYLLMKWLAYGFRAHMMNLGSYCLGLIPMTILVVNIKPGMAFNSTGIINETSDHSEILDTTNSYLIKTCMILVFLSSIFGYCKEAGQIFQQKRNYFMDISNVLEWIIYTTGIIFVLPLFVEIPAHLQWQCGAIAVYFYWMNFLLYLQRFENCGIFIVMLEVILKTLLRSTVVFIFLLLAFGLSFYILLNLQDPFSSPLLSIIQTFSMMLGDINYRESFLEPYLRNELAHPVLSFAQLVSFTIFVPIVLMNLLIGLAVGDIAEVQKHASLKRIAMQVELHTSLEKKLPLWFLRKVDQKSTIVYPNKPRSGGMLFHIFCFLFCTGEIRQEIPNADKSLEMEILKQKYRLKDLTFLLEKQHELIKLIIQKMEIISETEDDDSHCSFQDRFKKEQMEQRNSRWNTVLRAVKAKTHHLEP
hERG, sequence (Q12809 whole entry): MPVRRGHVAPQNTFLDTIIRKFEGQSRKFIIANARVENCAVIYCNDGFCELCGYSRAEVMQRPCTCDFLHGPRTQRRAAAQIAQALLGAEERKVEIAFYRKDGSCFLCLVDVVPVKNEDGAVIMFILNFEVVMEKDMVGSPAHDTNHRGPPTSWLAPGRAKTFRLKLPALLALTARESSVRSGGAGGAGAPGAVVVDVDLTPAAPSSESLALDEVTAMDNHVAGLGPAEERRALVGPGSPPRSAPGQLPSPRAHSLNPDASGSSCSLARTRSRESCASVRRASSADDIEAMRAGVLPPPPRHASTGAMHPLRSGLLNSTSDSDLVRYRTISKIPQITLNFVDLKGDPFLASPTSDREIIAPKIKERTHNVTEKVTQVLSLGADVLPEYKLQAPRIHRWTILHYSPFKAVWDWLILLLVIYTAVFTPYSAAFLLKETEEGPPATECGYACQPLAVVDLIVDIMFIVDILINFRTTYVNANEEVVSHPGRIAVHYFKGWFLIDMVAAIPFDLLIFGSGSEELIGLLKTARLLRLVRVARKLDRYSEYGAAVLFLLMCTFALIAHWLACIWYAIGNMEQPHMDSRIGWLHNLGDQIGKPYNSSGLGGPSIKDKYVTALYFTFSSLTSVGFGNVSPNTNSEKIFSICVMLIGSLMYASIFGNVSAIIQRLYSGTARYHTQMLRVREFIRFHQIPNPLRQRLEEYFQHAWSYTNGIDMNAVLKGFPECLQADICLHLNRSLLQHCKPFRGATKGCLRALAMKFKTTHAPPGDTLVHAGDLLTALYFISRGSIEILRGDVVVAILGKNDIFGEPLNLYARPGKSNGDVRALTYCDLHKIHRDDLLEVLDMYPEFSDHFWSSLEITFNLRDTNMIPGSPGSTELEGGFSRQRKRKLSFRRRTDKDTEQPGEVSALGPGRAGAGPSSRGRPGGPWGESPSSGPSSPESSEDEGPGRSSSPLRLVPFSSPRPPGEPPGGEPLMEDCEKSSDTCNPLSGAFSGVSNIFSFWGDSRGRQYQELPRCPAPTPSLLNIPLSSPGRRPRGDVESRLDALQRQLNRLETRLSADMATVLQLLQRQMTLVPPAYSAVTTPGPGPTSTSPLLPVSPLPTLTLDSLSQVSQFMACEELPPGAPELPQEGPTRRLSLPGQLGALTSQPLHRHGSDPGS
hNav1.2, sequence (Q99250 whole entry): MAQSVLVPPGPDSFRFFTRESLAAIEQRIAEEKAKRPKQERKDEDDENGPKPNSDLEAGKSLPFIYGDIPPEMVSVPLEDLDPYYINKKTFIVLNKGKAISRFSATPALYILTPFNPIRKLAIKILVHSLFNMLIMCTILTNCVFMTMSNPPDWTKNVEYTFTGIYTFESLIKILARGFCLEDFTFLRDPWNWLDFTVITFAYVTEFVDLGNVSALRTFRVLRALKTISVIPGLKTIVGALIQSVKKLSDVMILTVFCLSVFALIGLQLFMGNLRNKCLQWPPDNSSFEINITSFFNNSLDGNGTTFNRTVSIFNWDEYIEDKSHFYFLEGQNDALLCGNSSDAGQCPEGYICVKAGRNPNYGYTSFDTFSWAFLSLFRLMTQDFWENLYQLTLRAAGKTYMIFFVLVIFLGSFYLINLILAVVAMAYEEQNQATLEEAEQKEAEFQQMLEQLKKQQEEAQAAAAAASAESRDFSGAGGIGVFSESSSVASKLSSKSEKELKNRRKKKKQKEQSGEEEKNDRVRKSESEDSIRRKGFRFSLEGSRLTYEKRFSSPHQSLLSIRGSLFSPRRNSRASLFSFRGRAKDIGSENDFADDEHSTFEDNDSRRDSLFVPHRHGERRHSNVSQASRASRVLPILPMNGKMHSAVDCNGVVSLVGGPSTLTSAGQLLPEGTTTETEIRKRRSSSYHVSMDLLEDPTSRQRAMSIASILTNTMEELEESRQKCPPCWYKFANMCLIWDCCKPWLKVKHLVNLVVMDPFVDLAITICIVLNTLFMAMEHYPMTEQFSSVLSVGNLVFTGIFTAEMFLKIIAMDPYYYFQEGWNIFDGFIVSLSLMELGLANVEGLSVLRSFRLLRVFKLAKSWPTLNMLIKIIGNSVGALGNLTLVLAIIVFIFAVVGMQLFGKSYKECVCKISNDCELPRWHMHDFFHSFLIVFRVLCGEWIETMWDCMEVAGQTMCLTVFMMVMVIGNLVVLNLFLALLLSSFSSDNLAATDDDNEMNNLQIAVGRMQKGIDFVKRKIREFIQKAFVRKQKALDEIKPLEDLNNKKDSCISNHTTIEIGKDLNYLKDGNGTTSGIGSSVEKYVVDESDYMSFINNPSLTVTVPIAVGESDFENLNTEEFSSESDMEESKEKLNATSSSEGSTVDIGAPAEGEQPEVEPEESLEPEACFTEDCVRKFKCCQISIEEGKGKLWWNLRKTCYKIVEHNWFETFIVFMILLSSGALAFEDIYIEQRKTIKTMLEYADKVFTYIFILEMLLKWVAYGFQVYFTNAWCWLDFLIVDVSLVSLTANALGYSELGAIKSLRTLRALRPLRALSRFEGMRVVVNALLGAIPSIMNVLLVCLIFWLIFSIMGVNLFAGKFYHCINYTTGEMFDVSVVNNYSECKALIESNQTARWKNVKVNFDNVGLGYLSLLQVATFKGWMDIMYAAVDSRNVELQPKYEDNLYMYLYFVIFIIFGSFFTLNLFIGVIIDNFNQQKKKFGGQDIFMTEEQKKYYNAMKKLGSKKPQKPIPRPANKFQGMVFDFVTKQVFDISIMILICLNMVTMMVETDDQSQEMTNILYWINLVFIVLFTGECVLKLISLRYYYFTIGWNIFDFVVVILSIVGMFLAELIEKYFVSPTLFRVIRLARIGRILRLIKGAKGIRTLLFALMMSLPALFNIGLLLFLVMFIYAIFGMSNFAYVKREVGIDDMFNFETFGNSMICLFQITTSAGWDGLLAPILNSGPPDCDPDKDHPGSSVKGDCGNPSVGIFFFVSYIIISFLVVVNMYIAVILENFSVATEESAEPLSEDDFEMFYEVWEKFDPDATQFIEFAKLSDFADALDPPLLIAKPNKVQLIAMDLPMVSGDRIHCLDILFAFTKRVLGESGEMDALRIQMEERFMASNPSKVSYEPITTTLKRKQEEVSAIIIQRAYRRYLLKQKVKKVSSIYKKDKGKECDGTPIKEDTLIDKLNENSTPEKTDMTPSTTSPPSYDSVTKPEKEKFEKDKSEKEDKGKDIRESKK

IC50 (hTRPV3) [µM] | IC50 (hNav1.2) [µM] | IC50 (hTRPA1) [µM] | SMILES | serum biomarkers of hepatotoxicity (female rats) | serum biomarkers of hepatotoxicity (ALT, AST, ALP, GGT) ([1]; dogs, 50 mg/kg PO) | ALT level elevation ([1]; female beagle dogs) | ALT level elevation ([1]; male dogs) | duration of pain behavior compared with vehicle [2] | IC50 (hERG) [µM]
 |  |  | C[C@H]1CCCN1c1ccc(-c2csc(NC(=O)Cn3cnc4c3c(=O)n(C)c(=O)n4C)n2)cc1F [Formula (III)] | did elevate serum biomarkers of hepatotoxicity | did elevate serum biomarkers of hepatotoxicity | up to 130 fold | up to 60 fold | shorter durations of pain behavior than those treated with the vehicle | 
 |  |  | CC(C)c1ccc(NC(=O)Cn2cnc3c2c(=O)n(C)c(=O)n3C)cc1 [Formula (II)] |  |  |  |  | shorter durations of pain behavior than those treated with the vehicle | 
> 10 | > 20 | 9.8 | C[C@H]1CCCN1c1ncc(-c2cccc(NC(=O)Cn3cnc4[nH]c(=O)n(C)c(=O)c43)n2)cn1 [Formula (IV), reference compound] |  |  |  |  |  | > 20
